Where “and” joins values, the source holds several entries; their conditions need not be identical. Equal values may be shown once. One block for each compound: values may come before it.
Test system: 439559-082-T-J2-PDC complex spheroid growth
Experiment: Anticancer human tumor 439559-082-T-J2-PDC patient-derived colon adenocarcinoma cell line growth inhibition [Asc]
Settings: for viability, T/C: stronger effect = lower value
How it was run: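 Concentration series start at each agent's clinical Cmax, or at 10 microM when none is established, and drop in half-log steps; agents are applied alone or together to complex spheroids built with HUVEC and hMSC.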

[1] = curve of first compound, second compound 0.03 µM
[2] = curve of first compound, second compound 0.0949 µM
[3] = curve of first compound, second compound 0.3 µM
[4] = curve of first compound, second compound 0.949 µM
[5] = curve of first compound, second compound 3 µM
[6] = second compound 0.03 µM, first compound 0.0316 µM
[7] = second compound 0.03 µM, first compound 0.1 µM
[8] = second compound 0.03 µM, first compound 0.316 µM
[9] = second compound 0.03 µM, first compound 1 µM
[10] = second compound 0.03 µM, first compound 3.16 µM
[11] = second compound 0.03 µM, first compound 10 µM
[12] = second compound 0.0949 µM, first compound 0.0316 µM
[13] = second compound 0.0949 µM, first compound 0.1 µM
[14] = second compound 0.0949 µM, first compound 0.316 µM
[15] = second compound 0.0949 µM, first compound 1 µM
[16] = second compound 0.0949 µM, first compound 3.16 µM
[17] = second compound 0.0949 µM, first compound 10 µM
[18] = second compound 0.3 µM, first compound 0.0316 µM
[19] = second compound 0.3 µM, first compound 0.1 µM
[20] = second compound 0.3 µM, first compound 0.316 µM
[21] = second compound 0.3 µM, first compound 1 µM
[22] = second compound 0.3 µM, first compound 3.16 µM
[23] = second compound 0.3 µM, first compound 10 µM
[24] = second compound 0.949 µM, first compound 0.0316 µM
[25] = second compound 0.949 µM, first compound 0.1 µM
[26] = second compound 0.949 µM, first compound 0.316 µM
[27] = second compound 0.949 µM, first compound 1 µM
[28] = second compound 0.949 µM, first compound 3.16 µM
[29] = second compound 0.949 µM, first compound 10 µM
[30] = second compound 3 µM, first compound 0.0316 µM
[31] = second compound 3 µM, first compound 0.1 µM
[32] = second compound 3 µM, first compound 0.316 µM
[33] = second compound 3 µM, first compound 1 µM
[34] = second compound 3 µM, first compound 3.16 µM
[35] = second compound 3 µM, first compound 10 µM
[36] = curve of first compound, second compound 0.1 µM
[37] = curve of first compound, second compound 0.316 µM
[38] = curve of first compound, second compound 1 µM
[39] = curve of first compound, second compound 3.16 µM
[40] = curve of first compound, second compound 10 µM
[41] = second compound 0.1 µM, first compound 0.0316 µM
[42] = second compound 0.1 µM, first compound 0.1 µM
[43] = second compound 0.316 µM, first compound 0.0316 µM
[44] = second compound 0.316 µM, first compound 0.1 µM
[45] = second compound 1 µM, first compound 0.0316 µM
[46] = second compound 1 µM, first compound 0.1 µM
[47] = second compound 3.16 µM, first compound 0.0316 µM
[48] = second compound 3.16 µM, first compound 0.1 µM
[49] = second compound 10 µM, first compound 0.0316 µM
[50] = second compound 10 µM, first compound 0.1 µM
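Also: spheroids exposed to agents for 7 days starting day 3 after seeding.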
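For viability, T/C in this document: percent of DMSO vehicle control viability with 100% = vehicle.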

- IC50 [1]: > 10 µM
- IC50 [2]: > 10 µM
- IC50 [3]: > 10 µM
- IC50 [4]: > 10 µM
- IC50 [5]: > 10 µM
SMILES: C=CC(=O)N1CCN(c2nc(=O)n(-c3c(C)ccnc3C(C)C)c3nc(-c4c(O)cccc4F)c(F)cc23)C(C)C1 (stereo not drawn) + CCN1C(C(=O)NC23CCC(C(=O)O)(CC2)CC3)C(c2cccc(Cl)c2F)C2(C(=O)Nc3cc(Cl)ccc32)C12CCCCC2
- viability, T/C [6]: 108%
- viability, T/C [7]: 106%
- viability, T/C [8]: 108%
- viability, T/C [9]: 96.5%
- viability, T/C [10]: 107%
- viability, T/C [11]: 98.6%
- viability, T/C [12]: 103%
- viability, T/C [13]: 106%
- viability, T/C [14]: 110%
- viability, T/C [15]: 93.2%
- viability, T/C [16]: 101%
- viability, T/C [17]: 103%
- viability, T/C [18]: 103%
- viability, T/C [19]: 103%
- viability, T/C [20]: 110%
- viability, T/C [21]: 89.7%
- viability, T/C [22]: 100%
- viability, T/C [23]: 109%
- viability, T/C [24]: 102%
- viability, T/C [25]: 110%
- viability, T/C [26]: 117%
- viability, T/C [27]: 93.8%
- viability, T/C [28]: 99%
- viability, T/C [29]: 104%
- viability, T/C [30]: 94.7%
- viability, T/C [31]: 94.6%
- viability, T/C [32]: 107%
- viability, T/C [33]: 85.7%
- viability, T/C [34]: 90%
- viability, T/C [35]: 91.8%

- IC50 (curve of compound): > 1 µM
SMILES: COc1c(OCCCN2CCOCC2)ccc2c3n(c(=NC(=O)c4cnc(N)nc4)nc12)CCN3
- viability, T/C (compound 0.00316 µM): 100% and 101% and 93.5%
- viability, T/C (compound 0.01 µM): 104% (2×) and 90.9%
- viability, T/C (compound 0.0316 µM): 81.6% and 87.4% and 102%
- viability, T/C (compound 0.1 µM): 78.7% and 76.9% and 72.9%
- viability, T/C (compound 0.316 µM): 80% and 71.6% and 75.5%
- viability, T/C (compound 1 µM): 58.6% and 59% and 69.4%

- IC50 (compound alone, run of 10/11/2022): > 10 µM
SMILES: Cc1c(S(C)(=O)=O)c(-c2cc(F)cc(N3CCN(c4ccc(NS(=O)(=O)c5ccc(NC(CCN6CCC(C(=O)OCCCP(=O)(O)O)CC6)CSc6ccccc6)c(S(=O)(=O)C(F)(F)F)c5)cc4)CC3)c2)c(-c2ccc(Cl)cc2)n1C(C)C (stereo not drawn)
- viability, T/C (compound 0.1 µM): 97.4% [middle of 14 runs]
- viability, T/C (compound 0.316 µM): 97.4% [middle of 14 runs]
- viability, T/C (compound 1 µM): 91% [middle of 14 runs]
- viability, T/C (compound 3.16 µM): 87.2% [middle of 14 runs]
- viability, T/C (compound 10 µM): 74.9% [middle of 14 runs]

- IC50 [1]: 1.16 µM
- IC50 [2]: 2.2 µM
- IC50 [3]: 1.63 µM
- IC50 [4]: 2.19 µM
- IC50 [5]: 0.593 µM
SMILES: C#Cc1c(F)ccc2cc(O)cc(-c3ncc4c(N5CC6CCC(C5)N6)nc(OCC56CCCN5CC(F)C6)nc4c3F)c12 (stereo not drawn) + CCN1C(C(=O)NC23CCC(C(=O)O)(CC2)CC3)C(c2cccc(Cl)c2F)C2(C(=O)Nc3cc(Cl)ccc32)C12CCCCC2
- viability, T/C [6]: 88%
- viability, T/C [7]: 81.7%
- viability, T/C [8]: 64%
- viability, T/C [9]: 50%
- viability, T/C [10]: 48.4%
- viability, T/C [11]: 40%
- viability, T/C [12]: 88.8%
- viability, T/C [13]: 84.8%
- viability, T/C [14]: 74.5%
- viability, T/C [15]: 55.2%
- viability, T/C [16]: 49.7%
- viability, T/C [17]: 36.2%
- viability, T/C [18]: 88.5%
- viability, T/C [19]: 83.5%
- viability, T/C [20]: 73.4%
- viability, T/C [21]: 51.2%
- viability, T/C [22]: 49.3%
- viability, T/C [23]: 39.3%
- viability, T/C [24]: 103%
- viability, T/C [25]: 80.8%
- viability, T/C [26]: 72.8%
- viability, T/C [27]: 55.7%
- viability, T/C [28]: 48.2%
- viability, T/C [29]: 36.9%
- viability, T/C [30]: 73.6%
- viability, T/C [31]: 74.3%
- viability, T/C [32]: 56.6%
- viability, T/C [33]: 45.2%
- viability, T/C [34]: 44.9%
- viability, T/C [35]: 37.8%

- IC50 [36]: > 10 µM
- IC50 [37]: > 10 µM
- IC50 [38]: > 10 µM
- IC50 [39]: > 10 µM
- IC50 [40]: > 10 µM
SMILES: O=C(c1cc(Cc2n[nH]c(=O)c3ccccc23)ccc1F)N1CCN(C(=O)C2CC2)CC1 + Cc1c(S(C)(=O)=O)c(-c2cc(F)cc(N3CCN(c4ccc(NS(=O)(=O)c5ccc(NC(CCN6CCC(C(=O)OCCCP(=O)(O)O)CC6)CSc6ccccc6)c(S(=O)(=O)C(F)(F)F)c5)cc4)CC3)c2)c(-c2ccc(Cl)cc2)n1C(C)C
- viability, T/C [41]: 101%
- viability, T/C [42]: 110%
- viability, T/C (second compound 0.1 µM, first compound 0.316 µM): 98.4%
- viability, T/C (second compound 0.1 µM, first compound 1 µM): 92.6%
- viability, T/C (second compound 0.1 µM, first compound 3.16 µM): 98.1%
- viability, T/C (second compound 0.1 µM, first compound 10 µM): 90.9%
- viability, T/C [43]: 86%
- viability, T/C [44]: 102%
- viability, T/C (second compound 0.316 µM, first compound 0.316 µM): 109%
- viability, T/C (second compound 0.316 µM, first compound 1 µM): 92.5%
- viability, T/C (second compound 0.316 µM, first compound 3.16 µM): 99%
- viability, T/C (second compound 0.316 µM, first compound 10 µM): 90.3%
- viability, T/C [45]: 91.3%
- viability, T/C [46]: 101%
- viability, T/C (second compound 1 µM, first compound 0.316 µM): 105%
- viability, T/C (second compound 1 µM, first compound 1 µM): 93%
- viability, T/C (second compound 1 µM, first compound 3.16 µM): 92.4%
- viability, T/C (second compound 1 µM, first compound 10 µM): 92.8%
- viability, T/C [47]: 93%
- viability, T/C [48]: 101%
- viability, T/C (second compound 3.16 µM, first compound 0.316 µM): 96.1%
- viability, T/C (second compound 3.16 µM, first compound 1 µM): 80%
- viability, T/C (second compound 3.16 µM, first compound 3.16 µM): 98.4%
- viability, T/C (second compound 3.16 µM, first compound 10 µM): 86.1%
- viability, T/C [49]: 71.6%
- viability, T/C [50]: 73.6%
- viability, T/C (second compound 10 µM, first compound 0.316 µM): 92.2%
- viability, T/C (second compound 10 µM, first compound 1 µM): 84.1%
- viability, T/C (second compound 10 µM, first compound 3.16 µM): 76.5%
- viability, T/C (second compound 10 µM, first compound 10 µM): 72.7%

- IC50 [36]: > 0.1 µM
- IC50 [37]: > 0.1 µM
- IC50 [38]: > 0.1 µM
- IC50 [39]: > 0.1 µM
- IC50 [40]: > 0.1 µM
SMILES: NC1CCC(NC2CC2c2ccccc2)CC1 (stereo not drawn) + Cc1c(S(C)(=O)=O)c(-c2cc(F)cc(N3CCN(c4ccc(NS(=O)(=O)c5ccc(NC(CCN6CCC(C(=O)OCCCP(=O)(O)O)CC6)CSc6ccccc6)c(S(=O)(=O)C(F)(F)F)c5)cc4)CC3)c2)c(-c2ccc(Cl)cc2)n1C(C)C
- viability, T/C (second compound 0.1 µM, first compound 0.000316 µM): 101%
- viability, T/C (second compound 0.1 µM, first compound 0.001 µM): 115%
- viability, T/C (second compound 0.1 µM, first compound 0.00316 µM): 100%
- viability, T/C (second compound 0.1 µM, first compound 0.01 µM): 93.1%
- viability, T/C [41]: 113%
- viability, T/C [42]: 102%
- viability, T/C (second compound 0.316 µM, first compound 0.000316 µM): 99.4%
- viability, T/C (second compound 0.316 µM, first compound 0.001 µM): 114%
- viability, T/C (second compound 0.316 µM, first compound 0.00316 µM): 104%
- viability, T/C (second compound 0.316 µM, first compound 0.01 µM): 103%
- viability, T/C [43]: 105%
- viability, T/C [44]: 113%
- viability, T/C (second compound 1 µM, first compound 0.000316 µM): 96.6%
- viability, T/C (second compound 1 µM, first compound 0.001 µM): 107%
- viability, T/C (second compound 1 µM, first compound 0.00316 µM): 117%
- viability, T/C (second compound 1 µM, first compound 0.01 µM): 89.7%
- viability, T/C [45]: 97.8%
- viability, T/C [46]: 104%
- viability, T/C (second compound 3.16 µM, first compound 0.000316 µM): 95.2%
- viability, T/C (second compound 3.16 µM, first compound 0.001 µM): 108%
- viability, T/C (second compound 3.16 µM, first compound 0.00316 µM): 109%
- viability, T/C (second compound 3.16 µM, first compound 0.01 µM): 90.8%
- viability, T/C [47]: 89.9%
- viability, T/C [48]: 104%
- viability, T/C (second compound 10 µM, first compound 0.000316 µM): 88.3%
- viability, T/C (second compound 10 µM, first compound 0.001 µM): 96.4%
- viability, T/C (second compound 10 µM, first compound 0.00316 µM): 87.1%
- viability, T/C (second compound 10 µM, first compound 0.01 µM): 88.2%
- viability, T/C [49]: 85.1%
- viability, T/C [50]: 86%

Source: PubChem BioAssay AID1963423 (Molecular Pharmacology Branch, DTP, NCI, 2024)
